Read-outs that look alike come from different tables or passages of the source.
Tests used:
[1] = in vivo evaluation in mice of toxicity (change in weight); conditions: gavage; oseltamivir 10 mg/kg/day, etilefrine 3 mg/kg/day, diltiazem 90 mg/kg/day
Description: FIG. 4. In vivo evaluation of the toxicity of the following molecules: oseltamivir, monensin, diltiazem, etilefrine and isoxicam. The “Saline” control indicates the weight of mice treated with PBS. The curve represents the change in weight (weight gain/loss expressed as a percentage) of the various groups of mice over time.
The “Saline” control denotes untreated mice, having been treated with PBS.
The following daily amounts were administered by gavage to the mice: • oseltamivir: 10 mg/kg/day • etilefrine: 3 mg/kg/day • diltiazem: 90 mg/kg/day

H1N1 pdm09 virus [2] = experiment: in vivo antiviral effect, treatment started before H1N1 infection of mice; conditions: B57BL/6 mice, gavage on Day-1, day of and 3 days following infection
Description: B57BL/6 mice (age 7-8 weeks) are treated by gavage before (Day-1), the day of, and 3 days following infection with H1N1 pdm09 virus, according to the protocol shown diagrammatically in FIG. 5A.
The following parameters are evaluated over time: • FIG. 5B: Survival rate over time, up to 14 days post-infection; • FIG. 5C: Weight loss and gain observed over time; • FIG. 5D: Viral titer in the lungs of infected and treated mice.

H1N1 pdm09 virus [3] = experiment: in vivo antiviral effect, treatment 24 hours after H1N1 infection of mice; conditions: B57BL/6 mice, gavage, treatment 24 hours after infection, up to 14 days post-infection
Description: B57BL/6 mice (age 7-8 weeks) are treated by gavage after infection with H1N1 pdm09 virus, according to the protocol shown diagrammatically in FIG. 6A. Survival rate over time is measured for infected mice receiving no treatment (FIG. 6B); treated with oseltamivir (FIG. 6C); and treated with diltiazem (FIG. 6D). The survival rate of mice treated with oseltamivir, and of those treated with diltiazem, is 100%.

[4] = test system: H1N1 pdm09 virus (A/Pdm/09); type: cell-based, human influenza A virus
H1N1 pdm09 virus [5] = type: cell-based, human influenza A virus
influenza H1N1 pdm09 = type: cell-based, influenza virus
[6] = test system: A/Moscow/10/99 (H3N2) strain; type: cell-based, human influenza A virus; conditions: A549 cells, FIG. 2
H1N1 pdm09 = type: cell-based, human influenza A virus

COc1ccc([C@@H]2Sc3ccccc3N(CCN(C)C)C(=O)[C@@H]2OC(C)=O)cc1 [diltiazem]
toxicity (change in weight of the mice) [1]: clearly nontoxic
survival at 14 days (H1N1 pdm09 virus [2]): 90%
survival rate (H1N1 pdm09 virus [3]): 100%
normalized virus production [4]: significant decrease
virus production, comparison of the conditions ([4]; diltiazem alone at 9 nM, FIG. 3B): best results
decrease of relative viral titer / virus production relative to the control value (H1N1 pdm09 virus [5]): about 20%
antiviral effect on virus production (influenza H1N1 pdm09; diltiazem 9 μM): no significant antiviral affect
antiviral effect on virus production (influenza H1N1 pdm09; diltiazem 90 μM, compared with oseltamivir 1 μM): comparable antiviral effect

CCNCC(O)c1cccc(O)c1 (stereo not drawn) [etilefrine]
toxicity (change in weight of the mice) [1]: clearly nontoxic
survival at 14 days (H1N1 pdm09 virus [2]): 70%
normalized virus production [4]: significant decrease
antiviral effects [6]: significant from the lowest concentration tested
concentration that completely inhibits virus production [6]: 0.018 µM

CC(=O)O[C@H]1C[C@H](O[C@H]2[C@@H](O)C[C@H](O[C@H]3[C@@H](O)C[C@H](O[C@H]4CC[C@@]5(C)[C@H](CC[C@@H]6[C@@H]5C[C@@H](O)[C@]5(C)[C@@H](C7=CC(=O)OC7)CC[C@]65O)C4)O[C@@H]3C)O[C@@H]2C)O[C@H](C)[C@H]1O[C@@H]1O[C@H](CO)[C@@H](O)[C@H](O)[C@H]1O [lanatoside C]
normalized virus production [4]: did not make it possible to confirm the antiviral activity

CC[C@@]1([C@@H]2O[C@@H]([C@H]3O[C@@](O)(CO)[C@H](C)C[C@@H]3C)C[C@@H]2C)CC[C@H]([C@]2(C)CC[C@]3(C[C@H](O)[C@@H](C)[C@@H]([C@@H](C)[C@@H](OC)[C@H](C)C(=O)O)O3)O2)O1 [monensin]
normalized virus production [4]: significant decrease
decrease of virus production relative to the control value (H1N1 pdm09 virus [5]): about 72%

CCOC(=O)C1=C[C@@H](OC(CC)CC)[C@H](NC(C)=O)[C@@H](N)C1 [oseltamivir]
toxicity (change in weight of the mice) [1]: highest cell toxicity
survival at 14 days (H1N1 pdm09 virus [2]): 60%
survival rate (H1N1 pdm09 virus [3]): 100%
virus production decreased to ([4]; oseltamivir alone, FIGS. 3A and 3B): about 40%
virus production decreased to a value relative to the control value (H1N1 pdm09 virus [5]): about 55%
decrease of virus production relative to the control value (influenza H1N1 pdm09): up to 3 log 10
antiviral effect on virus production (influenza H1N1 pdm09; oseltamivir 0.1 μM): no significant antiviral affect
Dose Oseltamivir (H1N1 pdm09; Fa = 0.90 (90%)): 7.50797 µM
Dose Oseltamivir (H1N1 pdm09; Fa = 0.95 (95%)): 62.435 µM
Dose Oseltamivir (H1N1 pdm09; Fa = 0.97 (97%)): 281.813 µM

NC(=O)c1ncn([C@@H]2O[C@H](CO)[C@@H](O)[C@H]2O)n1 [ribavirin]
normalized virus production [4]: significant decrease

Reference: US12594280B2, “Antiviral compositions for treating the flu” (UNIVERSITE CLAUDE BERNARD LYON 1, priority 2015, dated 2026)
